Reference: ChEMBL document CHEMBL5500372, “Novel natural osthole-inspired amphiphiles as membrane targeting antibacterials against methicillin-resistant Staphylococcus aureus (MRSA)” (Eur J Med Chem, 2024)
Calls of active or inactive are those of the source. The calls are words filed in the database; no cut-off is given here.

What was measured:
Staphylococcus aureus [1] = assay: Antibacterial activity against methicillin-resistant Staphylococcus aureus clinical isolate 17 measured after 18 hrs by CLSI based broth microdilution method; assay type: functional
Staphylococcus aureus [2] = assay: Antibacterial activity against Staphylococcus aureus ATCC 29213 at sub-MIC concentration measured after 20 passages by CLSI micro broth dilution method; assay type: functional, organism-based
[3] = Toxicity in female KM mouse assessed as effect on platelet count at upto 20 mg/kg, sc measured after 24 hrs; assay type: organism-based; conditions: in vivo
Cell membrane [4] = assay: Disruption of cell membrane in methicillin-resistant Staphylococcus aureus clinical isolate 16 assessed as increase in red fluorescence at 8 times MIC measured after 4 hrs by DAPI and PI staining based laser confocal microscopy based analysis; assay type: cell membranes
Staphylococcus aureus [5] = assay: Antibacterial activity against methicillin-resistant Staphylococcus aureus clinical isolate 16 infected in female KM mouse skin abscess model assessed as reduction in number of MRSA cells at 5 to 10 mg/kg, sc measured after 24 hrs; assay type: functional, organism-based; conditions: dose 5-10 mg/kg
[6] = Toxicity in female KM mouse assessed as effect on white blood cell at upto 20 mg/kg, sc measured after 24 hrs; assay type: organism-based; conditions: in vivo
Staphylococcus aureus [7] = assay: Antibacterial activity against methicillin-resistant Staphylococcus aureus clinical isolate 14 measured after 18 hrs by CLSI based broth microdilution method; assay type: functional
[8] = Toxicity in female KM mouse skin abscess model infected with methicillin-resistant Staphylococcus aureus clinical isolate 16 assessed as effect on lung at 5 to 10 mg/kg, sc measured after 24 hrs by H and E staining based analysis; assay type: organism-based; conditions: in vivo, dose 5-10 mg/kg
Staphylococcus aureus [9] = assay: Antibacterial activity against methicillin-resistant Staphylococcus aureus clinical isolate 16 infected in female KM mouse skin abscess model assessed as reduction in bacterial load at 5 mg/kg, sc measured after 24 hrs relative to control; assay type: functional; parameters: scale not given: the % may be the effect or the level left
Cell membrane [10] = assay: Induction of cell membrane disruption in methicillin-resistant Staphylococcus aureus clinical isolate 16 assessed as dead cells (Q1 region) at 32 ug/ml measured after 2 hrs by SYTO-9 and PI staining based flow cytometry analysis (reference value: 0%); assay type: cell membranes; conditions: dose 32.0 µg/ml
L02 = assay: Cytotoxicity in human L02 cells measured after 24 hrs by CCK-8 method; assay type: toxicity, cell-based; conditions: l02, 24 h
Cell membrane [11] = assay: Induction of cell membrane disruption in methicillin-resistant Staphylococcus aureus clinical isolate 16 assessed as intact cells (Q3 region) at 64 ug/ml measured after 2 hrs by SYTO-9 and PI staining based flow cytometry analysis (reference value: 96.0%); assay type: cell membranes; conditions: dose 64.0 µg/ml
Cell membrane [12] = assay: Induction of cell membrane disruption in methicillin-resistant Staphylococcus aureus clinical isolate 16 assessed as dead cells (Q1 region) at 64 ug/ml measured after 2 hrs by SYTO-9 and PI staining based flow cytometry analysis (reference value: 0%); assay type: cell membranes; conditions: dose 64.0 µg/ml
[13] = Toxicity in female KM mouse assessed as effect on CREA at upto 20 mg/kg, sc measured after 24 hrs by biochemical test; assay type: organism-based; conditions: in vivo
Staphylococcus aureus [14] = assay: Antibacterial activity against methicillin-resistant Staphylococcus aureus clinical isolate 16 infected in female KM mouse skin abscess model assessed as healthy skin on back at 10 mg/kg, sc measured after 24 hrs; assay type: functional, organism-based
[15] = Toxicity in female KM mouse assessed as effect on hemoglobin at upto 20 mg/kg, sc measured after 24 hrs; assay type: organism-based; conditions: in vivo
Cell membrane [16] = assay: Disruption of cell membrane in methicillin-resistant Staphylococcus aureus clinical isolate 16 assessed as fold increase in intracellular ROS level at 64 ug/ml incubated for 50 mins by DCFH-DA staining based fluorescence assay; assay type: cell membranes; conditions: dose 64.0 µg/ml
Staphylococcus aureus [17] = assay: Antibacterial activity against methicillin-resistant Staphylococcus aureus clinical isolate 16 measured after 18 hrs in presence of phosphatidylethanolamine by checkerboard broth dilution method; assay type: functional, organism-based
Cell membrane [18] = assay: Induction of cytoplasmic membrane depolarization in methicillin-resistant Staphylococcus aureus clinical isolate 16 assessed as fold increase in fluorescence intensity at 32 time MIC measured after 35 mins by DiSC3-5 dye based fluorescence method
[19] = Toxicity in female KM mouse assessed as adverse effect on back skin at 5 to 20 mg/kg, sc measured after 24 hrs; assay type: organism-based; conditions: in vivo, dose 5-20 mg/kg
Staphylococcus aureus [20] = assay: Antibacterial activity against methicillin-resistant Staphylococcus aureus clinical isolate 13 measured after 18 hrs by CLSI based broth microdilution method; assay type: functional
Staphylococcus aureus [21] = assay: Antibacterial activity against methicillin-resistant Staphylococcus aureus clinical isolate 11 measured after 18 hrs by CLSI based broth microdilution method; assay type: functional
Staphylococcus aureus [22] = assay: Antibacterial activity against methicillin-resistant Staphylococcus aureus clinical isolate 16 infected in female KM mouse skin abscess model assessed as reduction in infiltration of inflammatory cells in dermis at 10 mg/kg, sc measured after 24 hrs by H and E staining based analysis; assay type: functional, organism-based
Staphylococcus aureus [23] = assay: Antibacterial activity against methicillin-resistant Staphylococcus aureus clinical isolate 16 infected in female KM mouse skin abscess model assessed as reduction in TNF-alpha level at 5 to 10 mg/kg, sc measured after 24 hrs by ELISA method; assay type: functional, organism-based; conditions: dose 5-10 mg/kg
[24] = Toxicity in female KM mouse assessed as swelling in skin at 40 to 80 mg/kg, sc measured after 24 hrs; assay type: organism-based; conditions: in vivo, dose 40-80 mg/kg
Staphylococcus aureus [25] = assay: Antibacterial activity against methicillin-resistant Staphylococcus aureus clinical isolate 16 infected in female KM mouse skin abscess model assessed as reduction in infiltration of inflammatory cells in subcutaneous tissue at 10 mg/kg, sc measured after 24 hrs by H and E staining based analysis; assay type: functional, organism-based

## CCCCCCNC(=O)C[N+](C)(C)CCCCCOc1ccc2ccc(=O)oc2c1CC=C(C)C.[Br-]
Staphylococcus aureus [1]
  MIC: 1 µg/mL
Staphylococcus aureus [2]
  Activity: inactive
[3]
  Activity: Non-Toxic
Cell membrane [4]
  Activity: Active
Staphylococcus aureus [5]
  Activity: Active
[6]
  Activity: Non-Toxic
Staphylococcus aureus [7]
  MIC: 1 µg/mL
[8]
  Activity: Non-Toxic
Staphylococcus aureus [9]
  Activity: 99.86%
Cell membrane [10]
  Activity: 61.7%
L02
  Activity: Non-Toxic
Cell membrane [11]
  Activity: 0%
Cell membrane [12]
  Activity: 96.2%
[13]
  Activity: Non-Toxic
Staphylococcus aureus [14]
  Activity: Active
[15]
  Activity: Non-Toxic
Cell membrane [16]
  fold change (FC): 7
Staphylococcus aureus [17]
  Activity: Active
Cell membrane [18]
  fold change (FC): 5
[19]
  Activity: Non-Toxic
Staphylococcus aureus [20]
  MIC: 2 µg/mL
Staphylococcus aureus [21]
  MIC: 1 µg/mL
Staphylococcus aureus [22]
  Activity: Active
Staphylococcus aureus [23]
  Activity: Active
[24]
  Activity: Toxic
Staphylococcus aureus [25]
  Activity: Active
